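Results reflect a 48-hour exposure of cells in 96-well plates to compound at five concentrations. The concentration for 50% growth inhibition is given as GI50. TGI denotes the concentration required for complete inhibition of growth.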
Columns and labels:
Assay in all cases: DTP human tumour cell line panel, 48 h
786-0 renal = test system: 786-0 renal
A498 renal = test system: A498 renal
A549 NSCLC = test system: A549 NSCLC
ACHN renal = test system: ACHN renal
BT-549 breast = test system: BT-549 breast
CAKI-1 renal = test system: CAKI-1 renal
CCRF-CEM leukemia = test system: CCRF-CEM leukemia
COLO 205 colon = test system: COLO 205 colon
DU-145 prostate = test system: DU-145 prostate
EKVX NSCLC = test system: EKVX NSCLC
HCC-2998 colon = test system: HCC-2998 colon
HCT-15 colon = test system: HCT-15 colon
HL-60(TB) leukemia = test system: HL-60(TB) leukemia
HOP-62 NSCLC = test system: HOP-62 NSCLC
HOP-92 NSCLC = test system: HOP-92 NSCLC
HS 578T breast = test system: HS 578T breast
HT29 colon = test system: HT29 colon
IGROV1 ovarian = test system: IGROV1 ovarian
K-562 leukemia = test system: K-562 leukemia
KM12 colon = test system: KM12 colon
LOX IMVI melanoma = test system: LOX IMVI melanoma
M14 melanoma = test system: M14 melanoma
MALME-3M melanoma = test system: MALME-3M melanoma
MCF7 breast = test system: MCF7 breast
MDA-MB-231 breast = test system: MDA-MB-231 breast
MDA-MB-435 = test system: MDA-MB-435
MOLT-4 leukemia = test system: MOLT-4 leukemia
NCI-H226 lung = test system: NCI-H226 lung
NCI-H23 lung = test system: NCI-H23 lung
NCI-H460 lung = test system: NCI-H460 lung
NCI-H522 lung = test system: NCI-H522 lung
NCI/ADR-RES ovarian = test system: NCI/ADR-RES ovarian
OVCAR-3 ovarian = test system: OVCAR-3 ovarian
OVCAR-4 ovarian = test system: OVCAR-4 ovarian
OVCAR-5 ovarian = test system: OVCAR-5 ovarian
OVCAR-8 ovarian = test system: OVCAR-8 ovarian
PC-3 prostate = test system: PC-3 prostate
RPMI-8226 leukemia = test system: RPMI-8226 leukemia
RXF 393 renal = test system: RXF 393 renal
SF-268 CNS = test system: SF-268 CNS
SF-295 CNS = test system: SF-295 CNS
SF-539 CNS = test system: SF-539 CNS
SK-MEL-2 melanoma = test system: SK-MEL-2 melanoma
SK-MEL-28 melanoma = test system: SK-MEL-28 melanoma
SK-MEL-5 melanoma = test system: SK-MEL-5 melanoma
SK-OV-3 ovarian = test system: SK-OV-3 ovarian
SN12C renal = test system: SN12C renal
SNB-19 CNS = test system: SNB-19 CNS
SNB-75 CNS = test system: SNB-75 CNS
SR leukemia = test system: SR leukemia
SW-620 colon = test system: SW-620 colon
T-47D breast = test system: T-47D breast
TK-10 renal = test system: TK-10 renal
U251 CNS = test system: U251 CNS
UACC-257 melanoma = test system: UACC-257 melanoma
UACC-62 melanoma = test system: UACC-62 melanoma
UO-31 renal = test system: UO-31 renal

`Cc1[nH]nc2ncc(C#Cc3cncc(C(=O)Nc4ccc(CN5CCN(C)CC5)c(C(F)(F)F)c4)c3)cc12` showed a GI50 (786-0 renal) of 0.173 µM, a TGI (786-0 renal) of 1.79 µM and a GI50 (A498 renal) of 0.218 µM. The TGI (A498 renal) was 1.24 µM, the GI50 (A549 NSCLC) was 0.453 µM and the TGI (A549 NSCLC) was > 100 µM. The GI50 (ACHN renal) was 0.126 µM, the GI50 (BT-549 breast) was 0.301 µM and the TGI (BT-549 breast) was 7.25 µM. The GI50 (CAKI-1 renal) was 0.0647 µM, the TGI (CAKI-1 renal) was 0.994 µM and the GI50 (CCRF-CEM leukemia) was 0.293 µM. For the same compound, the TGI (CCRF-CEM leukemia) was > 27.5 µM, the GI50 (COLO 205 colon) was 0.287 µM and the TGI (COLO 205 colon) was 1.91 µM. The GI50 (DU-145 prostate) was 0.152 µM, the GI50 (EKVX NSCLC) was 0.294 µM and the GI50 (HCC-2998 colon) was 0.488 µM. It also gave a GI50 (HCT-15 colon) of 0.288 µM, a TGI (HCT-15 colon) of 4.04 µM and a GI50 (HL-60(TB) leukemia) of 0.28 µM. It also gave a TGI (HL-60(TB) leukemia) of 16.9 µM, a GI50 (HOP-62 NSCLC) of 0.366 µM and a TGI (HOP-62 NSCLC) of 8.82 µM. It also gave a GI50 (HOP-92 NSCLC) of 0.123 µM, a TGI (HOP-92 NSCLC) of 0.808 µM and a GI50 (HS 578T breast) of 0.0872 µM. For the same compound, the TGI (HS 578T breast) was 0.929 µM, the GI50 (HT29 colon) was 0.174 µM and the TGI (HT29 colon) was 8.57 µM. The GI50 (IGROV1 ovarian) was 0.0582 µM, the TGI (IGROV1 ovarian) was 1.73 µM and the TGI (K-562 leukemia) was 2.03 µM. The GI50 (KM12 colon) was < 0.0116 µM, the GI50 (LOX IMVI melanoma) was 0.155 µM and the TGI (LOX IMVI melanoma) was 0.993 µM. The GI50 (M14 melanoma) was 0.0444 µM, the TGI (M14 melanoma) was 2.07 µM and the GI50 (MALME-3M melanoma) was 0.0654 µM. For the same compound, the TGI (MALME-3M melanoma) was 0.304 µM, the GI50 (MCF7 breast) was 0.772 µM and the TGI (MCF7 breast) was > 100 µM. It also gave a GI50 (MDA-MB-231 breast) of 0.0789 µM, a TGI (MDA-MB-231 breast) of 0.737 µM and a GI50 (MDA-MB-435) of 0.242 µM. For the same compound, the TGI (MDA-MB-435) was 21.1 µM, the GI50 (MOLT-4 leukemia) was 0.155 µM and the GI50 (NCI-H226 lung) was 0.124 µM. The TGI (NCI-H226 lung) was 0.953 µM, the GI50 (NCI-H23 lung) was 0.439 µM and the TGI (NCI-H23 lung) was > 100 µM. It also gave a GI50 (NCI-H460 lung) of 0.147 µM, a TGI (NCI-H460 lung) of 4.64 µM and a GI50 (NCI-H522 lung) of 0.124 µM. For the same compound, the TGI (NCI-H522 lung) was 4.73 µM, the GI50 (NCI/ADR-RES ovarian) was 5.77 µM and the TGI (NCI/ADR-RES ovarian) was > 25.3 µM. For the same compound, the GI50 (OVCAR-3 ovarian) was 0.401 µM, the GI50 (OVCAR-4 ovarian) was 0.582 µM and the GI50 (OVCAR-5 ovarian) was 0.418 µM. The GI50 (OVCAR-8 ovarian) was 0.413 µM, the GI50 (PC-3 prostate) was 0.33 µM and the TGI (PC-3 prostate) was > 21.8 µM. The GI50 (RPMI-8226 leukemia) was 0.426 µM, the GI50 (RXF 393 renal) was 0.0752 µM and the TGI (RXF 393 renal) was 0.6 µM. The GI50 (SF-268 CNS) was 0.289 µM, the GI50 (SF-295 CNS) was 0.286 µM and the GI50 (SF-539 CNS) was 0.158 µM. The TGI (SF-539 CNS) was 1.08 µM, the GI50 (SK-MEL-2 melanoma) was 0.0852 µM and the TGI (SK-MEL-2 melanoma) was 0.352 µM. It also gave a GI50 (SK-MEL-28 melanoma) of 0.212 µM, a TGI (SK-MEL-28 melanoma) of 3.74 µM and a GI50 (SK-MEL-5 melanoma) of 0.308 µM. The TGI (SK-MEL-5 melanoma) was 12.5 µM, the GI50 (SK-OV-3 ovarian) was 0.174 µM and the TGI (SK-OV-3 ovarian) was > 51.8 µM. For the same compound, the GI50 (SN12C renal) was 0.299 µM, the TGI (SN12C renal) was 11.2 µM and the GI50 (SNB-19 CNS) was 1.03 µM. It also gave a TGI (SNB-19 CNS) of 13.2 µM, a GI50 (SNB-75 CNS) of 0.491 µM and a TGI (SNB-75 CNS) of 13.6 µM. It also gave a GI50 (SR leukemia) of 0.14 µM, a GI50 (SW-620 colon) of 0.183 µM and a TGI (SW-620 colon) of 4.38 µM. For the same compound, the GI50 (T-47D breast) was 0.508 µM, the TGI (T-47D breast) was > 61.9 µM and the GI50 (TK-10 renal) was 0.441 µM. The GI50 (U251 CNS) was 0.46 µM, the TGI (U251 CNS) was 28.1 µM and the GI50 (UACC-257 melanoma) was 0.317 µM. For the same compound, the GI50 (UACC-62 melanoma) was 0.0959 µM, the TGI (UACC-62 melanoma) was 0.704 µM and the GI50 (UO-31 renal) was 0.326 µM. For the same compound, the TGI (UO-31 renal) was 1.98 µM.

Source: PubChem BioAssay (NCI)
